Experiments:
[1] = Self-assessment of pain before and after endodontic treatment (Control vs Experimental); type: in vivo, patients; settings: for self-assessed pain, 6 hours / self-assessed pain, 24 hours / self-assessed pain, 48 hours / self-assessed pain, 120 hours / self-assessed pain, Before: scale of 1-10; for self-assessed pain, 6 hours: 6 hours following endodontic treatment; for self-assessed pain, 24 hours: 24 hours following endodontic treatment; for self-assessed pain, 48 hours: 48 hours following endodontic treatment; for self-assessed pain, 120 hours: 120 hours following endodontic treatment; for self-assessed pain, Before: prior to endodontic treatment (baseline)
Protocol: Use of TCA during endodontic treatment is associated with decreased incidence of pain following endodontic treatment. Without wishing to be bound by the theory, it is believed that the TCA composition eliminates unmyelinated C fibers in the apical pulp, particularly in mandibular molars. To assess the decreased pain, individuals were asked to provide a self-assessment, on a scale of 1-10, of pain prior to endodontic treatment, and 6, 24, 48, and 120 hours following endodontic treatment. Patients were divided into two groups, one group (Control, N=9) receiving standard endodontic treatment including sodium hypochlorite as the primary irrigant, with occasional (as necessary) flushes with 17% EDTA, and one group (Experimental, N=10) receiving endodontic treatment including the composition described herein as a pre-treatment applied to pulp to facilitate navigating calcified canals and after initial shaping with patency. The experimental group received sodium hypochlorite irrigation and, as necessary, EDTA flushing, as in the control group.

dental pulp = settings: cited from earlier work
[2] = Experiments with TCA in endodontic treatment including sodium hypochlorite (clinical and radiographic observations); type: in vivo
Excerpt: FIGS. 7 and 8 show radiographic images from prior to (FIG. 7) and following (FIG. 8) endodontic treatment with a TCA composition as described herein. The image in FIG. 7 is of a tooth that had previously undergone endodontic treatment, but without TCA as a debridement solution.

[3] = cited from earlier work
[4] = endodontic treatment including sodium hypochlorite
[5] = endodontic treatment including sodium hypochlorite, particularly in lower molar cases

OCl [Control, sodium hypochlorite, reference compound]
self-assessed pain, 6 hours [1]: 1 | self-assessed pain, 24 hours [1]: 0.89 | self-assessed pain, 48 hours [1]: 1.44 | self-assessed pain, 120 hours [1]: 0.56 | self-assessed pain, Before [1]: 2.67 | amount of time that the treatment must be used (dental pulp; known debridement method): 10 min | time to dissolve dental pulp (dental pulp; strength of 6.25%): ≥ 10 min

O=C(O)C(Cl)(Cl)Cl [TCA, trichloroacetic acid]
subjective levels of pain following endodontic treatment compared to control ([1]; compared to the gold standard control, sodium hypochlorite): reduced subjective levels of pain | self-reported pain level at 6 hours ([1]; patients presenting with necrosis, 6 hours following treatment): 0.5 | self-reported pain level at 24 hours ([1]; patients presenting with necrosis, 24 hours following treatment): 0.25 | self-reported pain level at 48 hours ([1]; patients presenting with necrosis, 48 hours following treatment): 0 | self-reported pain level at 120 hours ([1]; patients presenting with necrosis, 120 hours following treatment): 0 | self-reported pain level before treatment ([1]; patients presenting with necrosis, before treatment (baseline)): 4.5 | self-assessed pain, 6 hours [1]: 0.7 | self-assessed pain, 24 hours [1]: 0.5 | self-assessed pain, 48 hours [1]: 0.4 | self-assessed pain, 120 hours [1]: 0.2 | self-assessed pain, Before [1]: 3.1 | radiographic appearance of retreated root (FIG. 8) ([2]; after endodontic retreatment with TCA): thicker irregular deformed material that fully fills the root tip | bleeding [2, 4]: lessened bleeding or elimination of bleeding altogether | cleanliness of apex [2, 4]: cleaner apex | inflammation [2, 5]: less inflammation | pain [2, 5]: reduced pain | access of debridement composition to microscopic root canal branches, fins, and anastomoses ([2]; in vivo): improved access | removal of debris and material from prior endodontic treatment ([2]; in vivo): improved removal of debris | pKa [3]: ~0.6
